Reference: patent US5434295A (priority 1994, dated 1995)
Entries after “also recorded” stand apart in the source; their conditions may differ.

What was measured:
[1] = tested on: voltage-dependent P-type calcium channels; experiment: Inhibition of voltage-dependent P-type calcium channels expressed in oocytes; type: biochemical, rat
[2] = Lipophilicity / solubility (statement); type: physicochemical
Procedure: Sci., 82, 1069-1079 (1993).
Several NMDA receptor blockers were tested. These compounds have […] and have to be dissolved in 100% dimethyl sulfoxide (DMSO) and diluted for use in ND-96 that contained 1% DMSO. Therefore, the effect of 1% DMSO on the response to 10^-4 M NMDA and 5×10^-6 M glycine was examined. DMSO had no effect on NMDA response in three different cells.

AMPA/kainate receptors = experiment: Effect on kainate responses in oocytes; type: biochemical, rat
[3] = tested on: cerebral ischemia in gerbils; experiment: Neurobehavioral scores in gerbils after bilateral common carotid artery occlusion; type: in vivo, Mongolian gerbils
Text: Inhibition of ischemic neuronal damage in gerbils: Temporary blockage of the blood supply to the gerbil brain by surgical ligation of the two major arteries (common carotids) results in transient global forebrain ischemia. Temporary global ischemia produces a delayed, selective degeneration of neurons in the hippocampus, a brain structure essential for memory formation. The ability of various compounds to prevent hippocampal cell loss and the attendant memory deficits is considered a measure of their potency as neuroprotectants in ischemic conditions.
The data are presented as average differential scores between the initial score obtained 5 hrs post-ischemia and that obtained on each successive day. The drug was administered intravenously 30 min post-ischemia.
Mongolian gerbils (male), 65-70 gr (Tumblebrook Farm) underwent the ischemic procedure while anaesthetised with equithisine.
Common carotid arteries (CCA) were isolated and 3-0 silk suture material was positioned loosely round them. The tips of each loop were tied together, and the suture material was buried beside the trachea. The ventral neck incision was then sutured. In the following day, they were lightly anaesthetised with ether, the neck skin wounds were opened and both CCA were occluded for 10 minutes using small artery clips. During the ischemia and until the animals recovered (regaining righting reflexes), they were maintained in a warm state (36.5°-37.5° C. rectal temperature). Thirty minutes following onset of ischemia, animals were reanaesthetised (ether) and the appropriate drug was administered I.V. via the femoral vein.
Clinical evaluation. […] This was done every 24 hours, for the entire 96-hour period. […]
Statistics. Neuroclinical appearance was analyzed using Wilcoxon Rank Sum Test. The histopathological evaluation was analyzed using One-Way ANOVA followed by Duncan's Test.
Gerbils were scored for their clinical symptoms following the ischemic insult according to the system described by Rudolphi et al. (Table 4). Each animal was evaluated daily over 4 consecutive days (Day 1 being the day of CCA occlusion). […]

GABA receptors = experiment: Effect on GABA responses in oocytes; type: biochemical, rat
[4] = tested on: MK-801 sites located at the NMDA receptor ion channel; experiment: Inhibition of [3H]MK-801 binding to rat forebrain membranes; details: for % inhibition of tritiated ligand binding to membranes, 3[H]-MK-801: 100 μM analogue
Text: Binding to the NMDA receptor linked channel: Non competitive antagonists of NMDA, the primary example of which is the compound MK-801, bind to a site within the NMDA receptor channel thus preventing the activation of the receptor-channel complex and the consequent neurotoxicity. The ability of various compounds to compete with the binding of tritium labeled MK-801 to brain membranes is considered a measure of their potency as NMDA non-competitive antagonists.
The association of pinene derivatives with acetylcholine-muscarinic receptor and with MK-801 sites located at the NMDA receptor ion channel.
Inhibition of ^3 [H]MK-801 binding to rat forebrain membranes by the test HU-211 compounds was carried out as described for HU-211 in Eshhar et al., NeuroReport 5, No. 3, 1993) (Methods section). The test compounds were solubilized in a mixture of ethanol:Emulfor:water (20:3:57).

[5] = tested on: acetylcholine-muscarinic receptor; type: binding, rat; details: 100 μM analogue
[6] = tested on: quisqualate-induced toxicity in primary cerebral cortical cell cultures; experiment: Protection of cortical neurons in culture from quisqualate-induced toxicity; type: cell-based; details: Rattus norvegicus, Cortical neurone; 10 μM compound; quisqualate 500 μM; read-out: % of cells rescued from quisqualate-induced toxicity
Procedure: The neuroprotective effects of the compounds of the invention were tested on neurons exposed to various excitotoxins in culture. The compounds tested included HU-259, HU-260, HU-270 and HU-271, which were all shown to have NMDA antagonist properties in mice (Example 13).
The test drugs were examined for their ability to protect neurons in culture from toxic effects of agonists of the different glutamate receptor subtypes (agonists of ionotropic and/or metabotropic glutamate receptors), e.g. NMDA, AMPA, kainate and quisqualate. The culture conditions and assay conditions were all performed as described in Eshhar et al. (NeuroReport 5, No. 3, 1993). In brief, primary cerebral cortical cell cultures were prepared from 18-20 day old rat fetuses by enzymatic dissociation. Resulting cell suspensions were plated on confluent cortical glial cell feder layer (prepared 2 weeks earlier by a similar method). […] Cell viability was determined morphologically following neuron specific enolase immunostaining of cells using the ABC biotin-avidin complex method, and determined quantitatively by measuring the extent of mitochondrial activity in living cells using the XTT-based assay. […] The density of color formation (O.D.), which is proportional to mitochondrial activity, was measured by a plate ELISA reader. The extent of neuroprotectant activity is expressed as % of cells rescued by the drugs tested.

With `CCCCCCC(C)(C)c1cc(OC(C)=O)c([C@H]2C=C(C(=O)O)[C@H]3C[C@@H]2C3(C)C)c(OC(C)=O)c1` [(+)-4-[4-DMH-2,6 diacetoxyphenyl]-2-carboxy-6,6-dimethylbicyclo[3.1.1]hept-2-en] the “inhibition of activity of voltage-dependent P-type calcium channels” value [1] was “did not inhibit”, the lipophilicity [2] was “very lipophilic” and the “effect on kainate responses” value (AMPA/kainate receptors) was “no effect”. For the same molecule, the “neurobehavioral scores / clinical symptoms” value ([3]; 8 mg/kg i.v. 30 min post-ischemia) was “improvement in neurobehavioral scores; also recorded: statistically significant improvement compared to controls”, the “animals showing no signs” value ([3]; three days post-ischemia) was 90% and the “animals showing only mild signs” value ([3]; three days post-ischemia) was 10%. For the same molecule, the “effect on GABA responses” value (GABA receptors) was “no effect”, the “% inhibition of tritiated ligand binding to membranes, 3[H]-MK-801” value [4] was 90.0% and the Ki ([4]; [3H]MK801 binding, rat forebrain membranes, representative experiment in triplicate (HU259), read-out: inhibition constant (K1)) was 7.6 µM. For the same molecule, the “% inhibition of tritiated ligand binding to membranes, 3[H]QNB” value [5] was 98.0%.
In the case of `CCCCCCC(C)(C)c1cc(OC(C)=O)c([C@H]2C=C(C(=O)NCCO)[C@H]3C[C@@H]2C3(C)C)c(OC(C)=O)c1` [HU-271], the “% inhibition of tritiated ligand binding to membranes, 3[H]-MK-801” value [4] is reported as 46.3%, the inhibition at 10 µM [6] is reported as 37% and the “% inhibition of tritiated ligand binding to membranes, 3[H]QNB” value [5] is reported as 98.3%.
